Source: US10981860B2, “Caspase inhibitor and pharmaceutical composition, use and therapeutic method thereof” (Chia Tai Tianqing Pharmaceutical Group Co., Ltd., priority 2016, dated 2021)

Tested on: Anti-Fas-induced Jurkat cells
Test: Anti-Fas-induced apoptosis of Jurkat cells in vitro (Caspase 3 substrate Ac-DEVD-AMC fluorescence)
Type: cell-based
Settings: Homo sapiens; Jurkat Clone E6-1, Anti-Fas 50 ng/mL, 24 hours, Ac-DEVD-AMC 10 μM

Row | SMILES | EC50
1 | CC(C)(C)c1ccccc1NC(=O)C(=O)N1CCCC[C@H](C(=O)N[C@@H](CC(=O)O)C(=O)COc2c(F)c(F)cc(F)c2F)C1 (single isomer, unassigned) [Example 9] | 65.5 nM
2 | CC(C)(C)c1ccccc1NC(=O)C(=O)N1CCCC[C@@H](C(=O)N[C@@H](CC(=O)O)C(=O)COc2c(F)c(F)cc(F)c2F)C1 (single isomer, unassigned) [Example 10] | 41.6 nM
3 | CC(C)(C)c1ccccc1NC(=O)C(=O)N[C@H]1CC[C@H](C(=O)N[C@@H](CC(=O)O)C(=O)COc2c(F)c(F)cc(F)c2F)CC1 [Example 6] | 552 nM
4 | CC(C)(C)c1ccccc1NC(=O)C(=O)N1CCOC(C(=O)N[C@@H](CC(=O)O)C(=O)COc2c(F)c(F)cc(F)c2F)C1 (stereo partly drawn) [Example 8] | 124 nM
5 | CC(C)(C)c1ccccc1NC(=O)C(=O)N1CC=CC[C@H](C(=O)N[C@@H](CC(=O)O)C(=O)COc2c(F)c(F)cc(F)c2F)C1 [Example 11] | 27.2 nM
6 | CC(C)(C)c1ccccc1NC(=O)C(=O)N1CC=CC[C@@H](C(=O)N[C@@H](CC(=O)O)C(=O)COc2c(F)c(F)cc(F)c2F)C1 [Example 12] | 52.5 nM
7 | O=C(O)C[C@H](NC(=O)C1CC2CCC(C1)N2C(=O)OCc1ccccc1)C(=O)COc1c(F)c(F)cc(F)c1F (stereo partly drawn) [Example 14] | 275 nM
8 | CC(C)(C)c1ccccc1NC(=O)C(=O)N1C[C@H](C(=O)N[C@@H](CC(=O)O)C(=O)COc2c(F)c(F)cc(F)c2F)Cc2ccccc21 [Example 16] | 417 nM
9 | CC(C)(C)c1ccccc1NC(=O)C(=O)N1C[C@@H](C(=O)N[C@@H](CC(=O)O)C(=O)COc2c(F)c(F)cc(F)c2F)Cc2ccccc21 [Example 17] | 289 nM
10 | CC(C)(C)c1ccccc1NC(=O)C(=O)N1CC[C@H](C(=O)N[C@@H](CC(=O)O)C(=O)COc2c(F)c(F)cc(F)c2F)C2CCCCC21 (stereo partly drawn) [Example 18] | 557 nM
11 | CC(C)(C)c1ccccc1NC(=O)C(=O)N1CC[C@@H](C(=O)N[C@@H](CC(=O)O)C(=O)COc2c(F)c(F)cc(F)c2F)C2CCCCC21 (stereo partly drawn) [Example 19] | 224 nM
12 | CC1(C(=O)N[C@@H](CC(=O)O)C(=O)COc2c(F)c(F)cc(F)c2F)CCN(C(=O)C(=O)Nc2ccccc2C(C)(C)C)CC1 [Example 20] | 698 nM
13 | CC(C)(C)c1ccccc1NC(=O)C(=O)N1CCC(F)(C(=O)N[C@@H](CC(=O)O)C(=O)COc2c(F)c(F)cc(F)c2F)CC1 [Example 21] | 97.9 nM
14 | O=C(O)C[C@H](NC(=O)C1CCN(C(=O)OCc2ccccc2)C1)C(=O)COc1c(F)c(F)cc(F)c1F (stereo partly drawn) [Example 22] | 34.2 nM
15 | O=C(O)C[C@H](NC(=O)c1ccc(NC(=O)OCc2ccccc2)cc1)C(=O)COc1c(F)c(F)cc(F)c1F [Example 23] | 215 nM
16 | O=C(O)C[C@H](NC(=O)C1CN(C(=O)OCc2ccccc2)CCO1)C(=O)COc1c(F)c(F)cc(F)c1F (stereo partly drawn) [Example 24] | 49.7 nM
17 | O=C(O)C[C@H](NC(=O)[C@H]1CC[C@H](NC(=O)OCc2ccccc2)CC1)C(=O)COc1c(F)c(F)cc(F)c1F [Example 25] | 70.7 nM
18 | O=C(O)C[C@H](NC(=O)[C@@H]1CCCN(C(=O)C2CCCC2)C1)C(=O)COc1c(F)c(F)cc(F)c1F [Example 26] | 12.6 nM
19 | O=C(O)C[C@H](NC(=O)[C@@H]1CCCN(C(=O)C(=O)NC2CCCC2)C1)C(=O)COc1c(F)c(F)cc(F)c1F [Example 27] | 21.1 nM
20 | O=C(O)C[C@H](NC(=O)[C@@H]1CCCN(C(=O)OC2CCCC2)C1)C(=O)COc1c(F)c(F)cc(F)c1F [Example 28] | 22.1 nM
21 | O=C(O)C[C@H](NC(=O)[C@@H]1CCCN(C(=O)NC2CCCC2)C1)C(=O)COc1c(F)c(F)cc(F)c1F [Example 29] | 57.4 nM
22 | CC(C)OC(=O)N1CCC[C@@H](C(=O)N[C@@H](CC(=O)O)C(=O)COc2c(F)c(F)cc(F)c2F)C1 [Example 30] | 14.5 nM
23 | O=C(O)C[C@H](NC(=O)[C@@H]1CCCN(C(=O)Oc2ccccc2)C1)C(=O)COc1c(F)c(F)cc(F)c1F [Example 31] | 21.4 nM

Row | SMILES | EC50
24 | O=C(O)C[C@H](NC(=O)C1CCN(C(=O)c2nccc3ccccc23)CC1)C(=O)COc1c(F)c(F)cc(F)c1F [Example 34] | 43 nM
25 | O=C(O)C[C@H](NC(=O)C1CCN(C(=O)c2ccccn2)CC1)C(=O)COc1c(F)c(F)cc(F)c1F [Example 35] | 25.4 nM
26 | O=C(O)C[C@H](NC(=O)C1CCN(C(=O)c2cccnc2)CC1)C(=O)COc1c(F)c(F)cc(F)c1F [Example 36] | 10.3 nM
27 | O=C(O)C[C@H](NC(=O)C1CCN(C(=O)c2ccncc2)CC1)C(=O)COc1c(F)c(F)cc(F)c1F [Example 37] | 23.9 nM
28 | O=C(O)C[C@H](NC(=O)C1CCN(C(=O)c2ncccn2)CC1)C(=O)COc1c(F)c(F)cc(F)c1F [Example 38] | 22 nM
29 | Cc1c(F)cc(F)c(F)c1OCC(=O)[C@H](CC(=O)O)NC(=O)C1CCN(C(=O)c2noc3ccccc23)CC1 [Example 41] | 18.8 nM
30 | O=C(O)C[C@H](NC(=O)C1CCN(C(=O)c2nc3ccccc3[nH]2)CC1)C(=O)COc1c(F)c(F)cc(F)c1F [Example 42] | 25.2 nM
31 | Cn1c(C(=O)N2CCC(C(=O)N[C@@H](CC(=O)O)C(=O)COc3c(F)c(F)cc(F)c3F)CC2)nc2ccccc21 [Example 43] | 38.6 nM
32 | Cn1c(C(=O)N2CCC(C(=O)N[C@@H](CC(=O)OC(C)(C)C)C(=O)COc3c(F)c(F)cc(F)c3F)CC2)cc2ccccc21 [Example 44] | 39.7 nM
33 | O=C(O)C[C@H](NC(=O)C1CCN(C(=O)c2nsc3ccccc23)CC1)C(=O)COc1c(F)c(F)cc(F)c1F [Example 51] | 27.2 nM
34 | CC1(C(=O)N2CCC(C(=O)N[C@@H](CC(=O)O)C(=O)COc3c(F)c(F)cc(F)c3F)CC2)CCCC1 [Example 52] | 21 nM
35 | CC(C)(C)c1ccccc1C(=O)N1CCC(C(=O)N[C@@H](CC(=O)O)C(=O)COc2c(F)c(F)cc(F)c2F)CC1 [Example 53] | 67.5 nM
36 | O=C(O)C[C@H](NC(=O)C1CCN(C(=O)c2nc3ccccc3s2)CC1)C(=O)COc1c(F)c(F)cc(F)c1F [Example 58] | 16.6 nM
37 | CC(C)(C)c1cc(Cl)ccc1NC(=O)C(=O)N1CCC(C(=O)N[C@@H](CC(=O)O)C(=O)COc2c(F)c(F)cc(F)c2F)CC1 [Example 59] | 157 nM
38 | O=C(O)C[C@H](NC(=O)C1CCN(C(=O)C(=O)Nc2ccc(Cl)cc2C(F)(F)F)CC1)C(=O)COc1c(F)c(F)cc(F)c1F [Example 60] | 49.6 nM
39 | O=C(O)C[C@H](NC(=O)C1CCN(C(=O)C(=O)NC2CCCC2)CC1)C(=O)COc1c(F)c(F)cc(F)c1F [Example 61] | 50.4 nM
40 | O=C(O)C[C@H](NC(=O)C1CCN(C(=O)C(=O)NCCC2CCCC2)CC1)C(=O)COc1c(F)c(F)cc(F)c1F [Example 62] | 42.4 nM
41 | O=C(O)C[C@H](NC(=O)C1CCN(C(=O)C(=O)NCC2CCCC2)CC1)C(=O)COc1c(F)c(F)cc(F)c1F [Example 63] | 38 nM
42 | CN(C(=O)C(=O)N1CCC(C(=O)N[C@@H](CC(=O)O)C(=O)COc2c(F)c(F)cc(F)c2F)CC1)c1ccccc1C(C)(C)C [Example 64] | 64.7 nM
43 | O=C(O)C[C@H](NC(=O)C1CCN(C(=O)OCC(F)(F)F)CC1)C(=O)COc1c(F)c(F)cc(F)c1F [Example 67] | 14.6 nM
44 | CC(C)OC(=O)N1CCC(C(=O)N[C@@H](CC(=O)O)C(=O)COc2c(F)c(F)cc(F)c2F)CC1 [Example 68] | 23.2 nM
45 | O=C(O)C[C@H](NC(=O)C1CCN(C(=O)OCc2ccccc2)CC1)C(=O)COc1c(F)c(F)cc(F)c1F [Example 71] | 29.3 nM
